Data set [1] is described as follows: Water solubility of drugs incorporated into G3 particles. The conditions noted are these: drug alone or incorporated into G3 particles.
The test system of a further data set is HL-60 AML cells. The experiment in a line: FMCA cancer cell killing on HL-60 AML cells. The data set is classed as cell-based, human. The conditions noted are these: 3 days, selected concentrations. On the procedure: The FMCA method is based on measurement of fluorescence generated from hydrolysis of fluorescein diacetate (FDA) to fluorescein by cells with intact plasma membranes. After above mentioned incubation for 3 days, the medium was removed by aspiration. After one wash with PBS, 100 μl/well of FDA dissolved in a physiological buffer (10 μg/ml) was added. The plates were incubated for 45 minutes and the generated fluorescence from each well was measured in a 96-well scanning fluorometer. The fluorescence is proportional to the number of intact cells in the well. Quality criteria for a successful analysis included a fluorescence signal in the control wells of more than five times of the mean blank value, a mean co-efficient of variation (CV) in the control wells of less than 30%.
The nanoparticles G3 and G3-DT formulated as described in Ex 1 and 2 were compared with the active component QHC form for the cancer cell killing effect. The samples were 5-fold serial diluted in 6 steps starting from 100 μg/ml, and incubated for 3 days with HL-60 AML cells. Then the cells were stained and read by the FMCA method.
HL-60 AML cells were exposed for 3 days at pre-determined concentrations of G3 and cytarabine separately and in combination of these two as shown on FIG. 7. Then the cells were stained and read for cancer cell killing effect by the FMCA method. […]

Data set [2] is described as follows: Detection of vitamin D3 in the water phase (DiaSorin Liaison). It counts as physicochemical. On the procedure:
Samples with cholecalciferol (vitamin D3) incorporated in G3 particles were analysed at a University Hospital Laboratory on a Liaison automatic instrument. Although the assay (DiaSorin Liaison) is designed to measure 25-HO-D3 it has about one percent cross-reactivity with non-hydroxylated vitamin D3.
First, 50% cholesterol and 50% vitamin D3 were used to form the lipid membrane. Quil A was added into the water phase to generate the G3 particles (for details, please refer to Example 1). 100% Cholesterol and 100% Vitamin D3 in water were used as the controls. Samples with vitamin D3 incorporated in G3 particles were analysed at the Uppsala University Hospital Laboratory on a DiaSorin Liaison automatic instrument.

Data set [3] concerns PC-3 prostate cancer cells. The experiment in a line: cells. It counts as cell-based, human.
Experimental: The samples were 5-fold serially diluted in 6 steps starting from the concentration of 100 μg/ml, and incubated with PC-3 prostate cancer cells for 3 days. Then the cells were stained and read by the FMCA method.
Then the cells were stained and the cancer cell killing effect was read by the FMCA method.

The values that follow come from patent US9907846B2 (priority 2013, dated 2018).

The EC50 is the concentration at which the effect is half-maximal. Usually IC50 stands for the midpoint of a concentration-inhibition curve.

Where “and” joins values, the source holds several entries; their conditions need not be identical. Equal entries are not always repeated.

Experimental for U937 cells: The read out was the particle formulation i.e. the extraction of the membrane into the quillaja micell, the anticancer cell killing effect tested on U937 cancer cells and the stimulation of IL-8 of the same cells (see Materials and Methods).
The Alamar Blue assay was used essentially according recommendations from the supplier (Serotec Ltd, Oxford, UK). Briefly, the cells were adjusted to 1×10^5 cells/ml in cell culture medium and 200 μl/well cells in 96-well plates (Nunc, Roskilde, Denmark). Then various QS formulations or medium alone (as control) was added in triplicates and incubated 3 days at 37° C. in humidified atmosphere containing 5% CO2. Alamar Blue was added to a final concentration of 10% to the wells after specified time points. The cell metabolic activity was subsequently measured up to 8 hrs.
Free form of QA is used as positive control. The cell metabolism activity is analyzed by Alamar Blue at 570 and 600 nm.

As to `CS(=O)(=O)OCCCCOS(C)(=O)=O` [busulfan], the “solubility in water (visual)” value in data set [1] is recorded as “clear solutions”.

With `Nc1ccn([C@@H]2O[C@H](CO)[C@@H](O)[C@@H]2O)c(=O)n1` [cytarabine], in the data set on HL-60 AML cells, the cells killed is reported as below 55%.

Take `C=C1CC[C@H](O)C/C1=C/C=C1\CCC[C@]2(C)[C@@H]([C@H](C)CCCC(C)C)CC[C@@H]12` [vitamin D3 control, cholecalciferol]: the “vitamin D3 detected in the water phase” value in data set [2] was “only trace amount”.

For `N[C@H]1C(O)O[C@H](CO)[C@H](O)[C@@H]1O` (stereo partly drawn) [Galactosamine], the EC50 in the data set on U937 cells is 0.367 µg/mL and 0.389 µg/mL and 0.214 µg/mL.

Regarding `CO[C@H]1C(=O)[C@]2(C)[C@@H](OC)C[C@H]3OC[C@@]3(OC(C)=O)[C@H]2[C@H](OC(=O)c2ccccc2)[C@]2(O)C[C@H](OC(=O)[C@H](O)[C@@H](NC(=O)OC(C)(C)C)c3ccccc3)C(C)=C1C2(C)C` [Cabazitaxel, cabazitaxel], 25.5 µM corresponded to half-maximal inhibition in data set [3] (Homo sapiens, 72 h) (IC50).

`CC(=O)O[C@@]12CO[C@@H]1C[C@H](O)[C@@]1(C)C(=O)[C@H](O)C3=C(C)[C@@H](OC(=O)[C@H](O)[C@@H](NC(=O)OC(C)(C)C)c4ccccc4)C[C@@](O)([C@@H](OC(=O)c4ccccc4)[C@H]21)C3(C)C` [docetaxel] gave a cells killed in data set [3] (PC-3 cells, 3 days, selected concentrations, FMCA) above 2%.
